Source: patent publication US8461328B2, “Tricyclic heterocyclic compounds, compositions and methods of use thereof” (Genentech, Inc., priority 2010, dated 2013)

Experiments:
Format in all cases: biochemical
JAK1 = target: T1, JAK1 (Homo sapiens, UniProt P23458); assay: JAK1 inhibition (Table 4); conditions: read-out: JAK1 Ki
T1 construct: made in house; host or cells: SF9 insect cells (baculovirus)

JAK2 = target: T2, JAK2 (Homo sapiens, UniProt O60674); assay: JAK2 inhibition (Table 4); conditions: read-out: JAK2 Ki
T2 construct: made in house; host or cells: SF9 insect cells (baculovirus)
T2 sequence (O60674 812-1132): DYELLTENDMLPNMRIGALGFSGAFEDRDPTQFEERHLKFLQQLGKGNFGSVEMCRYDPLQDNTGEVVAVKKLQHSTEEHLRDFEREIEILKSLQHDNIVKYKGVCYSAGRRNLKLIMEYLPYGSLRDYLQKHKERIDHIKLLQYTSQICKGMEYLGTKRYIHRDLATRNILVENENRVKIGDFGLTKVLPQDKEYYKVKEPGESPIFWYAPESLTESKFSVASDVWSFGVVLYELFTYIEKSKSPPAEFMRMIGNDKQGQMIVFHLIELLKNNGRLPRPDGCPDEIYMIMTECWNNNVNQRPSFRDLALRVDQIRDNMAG

TYK2 = target: T3, TYK2 (Homo sapiens, UniProt P29597); assay: TYK2 inhibition (Table 4)
T3 construct: made in house; host or cells: SF9 insect cells (baculovirus)
T3 sequence (P29597 873-1187): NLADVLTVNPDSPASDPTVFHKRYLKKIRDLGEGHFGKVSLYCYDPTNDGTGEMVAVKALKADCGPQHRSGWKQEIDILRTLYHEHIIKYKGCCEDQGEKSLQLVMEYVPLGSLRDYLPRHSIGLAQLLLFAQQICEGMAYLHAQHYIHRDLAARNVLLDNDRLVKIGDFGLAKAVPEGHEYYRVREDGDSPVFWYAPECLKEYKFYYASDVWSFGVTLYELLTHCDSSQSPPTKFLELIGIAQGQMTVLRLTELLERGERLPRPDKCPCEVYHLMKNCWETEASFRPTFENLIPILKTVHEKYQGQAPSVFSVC

JAK3 = target: T4, JAK3 (Homo sapiens, UniProt P52333); assay: JAK3 inhibition (Table 4); conditions: read-out: JAK3 Ki
T4 construct: made in house; host or cells: SF9 insect cells (baculovirus)
T4 sequence (P52333 783-1124): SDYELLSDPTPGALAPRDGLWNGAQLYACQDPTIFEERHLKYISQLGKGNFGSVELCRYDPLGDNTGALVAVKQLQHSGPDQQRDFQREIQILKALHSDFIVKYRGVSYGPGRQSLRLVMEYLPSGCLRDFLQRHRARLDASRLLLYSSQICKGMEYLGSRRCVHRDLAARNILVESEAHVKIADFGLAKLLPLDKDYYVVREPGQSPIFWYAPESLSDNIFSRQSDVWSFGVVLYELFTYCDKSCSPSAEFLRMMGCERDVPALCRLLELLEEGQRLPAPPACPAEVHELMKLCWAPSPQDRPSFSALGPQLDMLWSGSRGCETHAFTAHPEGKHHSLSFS

T1 sequence (P23458 852-1154): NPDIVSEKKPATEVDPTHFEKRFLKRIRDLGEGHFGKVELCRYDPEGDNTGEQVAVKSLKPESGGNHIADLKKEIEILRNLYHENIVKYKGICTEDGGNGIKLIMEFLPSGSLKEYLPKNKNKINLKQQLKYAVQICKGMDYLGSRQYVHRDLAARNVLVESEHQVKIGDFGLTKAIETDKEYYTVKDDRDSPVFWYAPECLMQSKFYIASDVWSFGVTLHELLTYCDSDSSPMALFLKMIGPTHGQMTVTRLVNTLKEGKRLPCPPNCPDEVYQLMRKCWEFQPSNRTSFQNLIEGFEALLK

| SMILES | Ki (JAK1) | Ki (JAK2) | Ki (TYK2) | Ki (JAK3) |
| --- | --- | --- | --- | --- |
| CC(C)(C)OC(=O)N1CCC(n2c(C#N)nc3cnc4[nH]ccc4c32)CC1 [Example 169, 4-(2-Cyano-6H-1,2,3,5,6-tetraaza-as-indacen-1-yl)-piperidine-1-carboxylic acid tert-butyl ester] | 292 nM | 186 nM | 2930 nM | – |
| Cc1nc2cnc3[nH]ccc3c2n1C1CCN(C(=O)[C@@H]2CCCN2C)CC1 [Example 285] | 51.8 nM | 402 nM | 2410 nM | – |
| CN(C)CC(=O)N1CC[C@@H](n2cnc3cnc4[nH]ccc4c32)C1 [Example 429, 2-Dimethylamino-1-[(R)-3-(6H-1,3,5,6-tetraaza-as-indacen-1-yl)-pyrrolidin-1-yl]-ethanone] | 211 nM | 894 nM | 2230 nM | – |
| N#Cc1cccc(CC(=O)N2CC[C@@H](n3cnc4cnc5[nH]ccc5c43)C2)c1 [Example 189, 3-{2-oxo-2-[(R)-3-(6H-1,2,3,5,6-tetraaza-as-indacen-1-yl)-pyrrolidin-1-yl]-ethyl}-benzonitrile] | 89.5 nM | 362 nM | 1410 nM | – |
| OC[C@@H](O)c1nc2cnc3[nH]ccc3c2n1C1CCCCC1 [Example 688, (S)-1-(1-Cyclohexyl-1,6-dihydro-1,2,3,5,6-tetraaza-as-indacen-2-yl)-ethane-1,2-diol] | 1.77 nM | – | 4.7 nM | 16.1 nM |
| N#Cc1ccc(S(=O)(=O)N2CC[C@@H](n3cnc4cnc5[nH]ccc5c43)C2)cc1 [Example 433, 4-[(R)-3-(6H-1,3,5,6-Tetraaza-as-indacen-1-yl)-pyrrolidine-1-sulfonyl]-benzonitrile] | 22.4 nM | 87.6 nM | 293 nM | – |
| CCN1CCCC[C@H]1C(=O)N1CCC(n2cnc3cnc4[nH]ccc4c32)CC1 [Example 949, ((S)-1-Ethyl-piperidin-2-yl)-[4-(6H-1,3,5,6-tetraaza-as-indacen-1-yl)-piperidin-1-yl]-methanone] | 44.1 nM | 515 nM | 1790 nM | – |
| c1cc2c(ncc3nc(C4CCCN4)n(C4CCCOC4)c32)[nH]1 (single isomer, unassigned) [Example 665] | 432 nM | 1800 nM | – | 1780 nM |
| C[C@@H](O)c1nc2cnc3[nH]ccc3c2n1C1CCN(CC(=O)N2CCCC2)CC1 [Example 872, 2-{4-[2-((R)-1-Hydroxy-ethyl)-6H-1,3,5,6-tetraaza-as-indacen-1-yl]-piperidin-1-yl}-1-pyrrolidin-1-yl-ethanone] | 164 nM | 983 nM | – | 998 nM |
| CC(C)(O)c1nc2cnc3[nH]ccc3c2n1C1CCN(Cc2ccccc2)CC1 [Example 171, 2-[1-(1-Benzyl-piperidin-4-yl)-1,6-dihydro-1,2,3,5,6-tetraaza-as-indacen-2-yl]-propan-2-ol] | 49.9 nM | 241 nM | – | 103 nM |
| O=C([C@@H]1CCCN1C1CCC1)N1CCC(n2cnc3cnc4[nH]ccc4c32)CC1 [Example 147, ((S)-1-Cyclobutyl-pyrrolidin-2-yl)-[4-(6H-1,2,3,5,6-tetraaza-as-indacen-1-yl)-piperidin-1-yl]-methanone] | 65.3 nM | 596 nM | 1530 nM | – |
| CN1CCN(CC(=O)N2CCC(n3cnc4cnc5[nH]ccc5c43)CC2)CC1 [Example 193, 2-(4-Methyl-piperazin-1-yl)-1-[4-(6H-1,2,3,5,6-tetraaza-as-indacen-1-yl)-piperidin-1-yl]-ethanone] | 111 nM | 697 nM | 3150 nM | – |
| C[C@H](O)c1nc2cnc3[nH]ccc3c2n1[C@@H]1CCCN(C(=O)Cn2ccnc2)C1 [Example 781, 1-{(R)-3-[2-((S)-1-Hydroxy-ethyl)-6H-1,3,5,6-tetraaza-as-indacen-1-yl]-piperidin-1-yl}-2-imidazol-1-yl-ethanone] | 380 nM | 1490 nM | – | 4000 nM |
| CC(C)(O)c1nc2cnc3[nH]ccc3c2n1C1CCNCC1 [Example 334, 2-(1-Piperidin-4-yl-1,6-dihydro-1,3,5,6-tetraaza-as-indacen-2-yl)-propan-2-ol] | 137 nM | 2240 nM | – | 2550 nM |
| CC(C)n1cc(CN2CCC(n3c([C@@H](C)O)nc4cnc5[nH]ccc5c43)CC2)cn1 [Example 824, (R)-1-{1-[1-(1-Isopropyl-1H-pyrazol-4-ylmethyl)-piperidin-4-yl]-1,6-dihydro-1,3,5,6-tetraaza-as-indacen-2-yl}-ethanol] | 24.5 nM | 1210 nM | – | 600 nM |
| OCC(O)c1nc2cnc3[nH]ccc3c2n1C1CCCCC1 (racemic) [Example 853, 1-(1-Cyclohexyl-1,6-dihydro-1,3,5,6-tetraaza-as-indacen-2-yl)-ethane-1,2-diol] | 1.98 nM | – | 5.29 nM | 20.4 nM |
| O=C([C@@H]1CCCCN1C1COC1)N1CCC(n2cnc3cnc4[nH]ccc4c32)CC1 [Example 951, ((S)-1-Oxetan-3-yl-piperidin-2-yl)-[4-(6H-1,3,5,6-tetraaza-as-indacen-1-yl)-piperidin-1-yl]-methanone] | 141 nM | 480 nM | 2880 nM | – |
| CC(C)(C#N)c1nc2cnc3[nH]ccc3c2n1C1CCN(Cc2cnccn2)CC1 [Example 164, 2-Methyl-2-[1-(1-pyrazin-2-ylmethyl-piperidin-4-yl)-1,6-dihydro-1,2,3,5,6-tetraaza-as-indacen-2-yl]-propionitrile] | 52.8 nM | 129 nM | – | 57.1 nM |
| Cc1nn(C)c(C)c1CN1CCC(n2c([C@@H](C)O)nc3cnc4[nH]ccc4c32)CC1 [Example 831, (R)-1-{1-[1-(1,3,5-Trimethyl-1H-pyrazol-4-ylmethyl)-piperidin-4-yl]-1,6-dihydro-1,3,5,6-tetraaza-as-indacen-2-yl}-ethanol] | 309 nM | 2680 nM | – | 1000 nM |
| Cc1nc(CN2CCC(n3c([C@@H](C)O)nc4cnc5[nH]ccc5c43)CC2)n(C)c1C [Example 827, (R)-1-{1-[1-(1,4,5-Trimethyl-1H-imidazol-2-ylmethyl)-piperidin-4-yl]-1,6-dihydro-1,3,5,6-tetraaza-as-indacen-2-yl}-ethanol] | 73.9 nM | 1720 nM | – | 1460 nM |
| OC[C@H](O)c1nc2cnc3[nH]ccc3c2n1C1CCCCC1 [Example 858, (R)-1-(1-Cyclohexyl-1,6-dihydro-1,3,5,6-tetraaza-as-indacen-2-yl)-ethane-1,2-diol] | 7.77 nM | – | 19.8 nM | 52.4 nM |
| c1cc(N2CCC[C@@H](n3cnc4cnc5[nH]ccc5c43)C2)ccn1 [Example 13, (R)-1-(3,4,5,6-Tetrahydro-2H-[1,4]bipyridinyl-3-yl)-1,6-dihydro-1,2,3,5,6-tetraaza-as-indacene] | 179 nM | 898 nM | – | 1840 nM |
| CC(=O)N1CCC(n2c(C(F)(F)CN)nc3cnc4[nH]ccc4c32)CC1 [Example 139, 1-{4-[2-(2-Amino-1,1-difluoro-ethyl)-6H-1,2,3,5,6-tetraaza-as-indacen-1-yl]-piperidin-1-yl}-ethanone] | 339 nM | 930 nM | – | 1450 nM |
| CC(C)(C)OC(=O)N1CCCC[C@H]1CN[C@H]1CC[C@H](n2cnc3cnc4[nH]ccc4c32)CC1 [Example 564, trans (S)-2-{[4-(6H-1,3,5,6-Tetraaza-as-indacen-1-yl)-cyclohexylamino]-methyl}-piperidine-1-carboxylic acid tert-butyl ester] | 112 nM | 710 nM | – | 2650 nM |
| Cc1nn(C)cc1CN1CCC(n2c([C@@H](C)O)nc3cnc4[nH]ccc4c32)CC1 [Example 828, (R)-1-{1-[1-(1,3-Dimethyl-1H-pyrazol-4-ylmethyl)-piperidin-4-yl]-1,6-dihydro-1,3,5,6-tetraaza-as-indacen-2-yl}-ethanol] | 90.5 nM | 1670 nM | – | 949 nM |
| Cc1nc(S(=O)(=O)N2CCC(n3cnc4cnc5[nH]ccc5c43)CC2)cn1C [Example 444, 1-[1-(1,2-Dimethyl-1H-imidazole-4-sulfonyl)-piperidin-4-yl]-1,6-dihydro-1,3,5,6-tetraaza-as-indacene] | 481 nM | 370 nM | 3420 nM | – |
| CC(C)(C)OC(=O)N1CCC(n2c(NCCO)nc3cnc4[nH]ccc4c32)CC1 [Example 654, 4-[(2-Hydroxy-ethylamino)-6H-1,2,3,5,6-tetraaza-as-indacen-1-yl]-piperidine-1-carboxylic acid tert-butyl ester] | 453 nM | 763 nM | – | 2090 nM |
| CC(C)N1CCC(n2nnc3cnc4[nH]ccc4c32)CC1 [Example 548, 1-(1-Isopropyl-piperidin-4-yl)-1,6-dihydro-1,2,3,5,6-pentaaza-as-indacene] | 223 nM | 484 nM | 2790 nM | – |
| c1ccc(CN2CCC(n3c(C4CCOCC4)nc4cnc5[nH]ccc5c43)CC2)cc1 [Example 154, 1-(1-Benzyl-piperidin-4-yl)-2-(tetrahydro-pyran-4-yl)-1,6-dihydro-1,2,3,5,6-tetraaza-as-indacene] | 15.3 nM | 28.4 nM | – | 9.24 nM |
| C[C@@H](O)c1nc2cnc3[nH]ccc3c2n1[C@@H]1CCCN(C(=O)Cn2ccnc2)C1 [Example 798, 1-{(R)-3-[2-((R)-1-Hydroxy-ethyl)-6H-1,3,5,6-tetraaza-as-indacen-1-yl]-piperidin-1-yl}-2-imidazol-1-yl-ethanone] | 69 nM | 2640 nM | – | 897 nM |
